## Nc1ccc(Cc2ccc(N)c(Cl)c2)cc1Cl
In 1,4-dioxane, 288.15 K
  solubility (mole fraction): 0.206
In 1,4-dioxane, 293.15 K
  solubility (mole fraction): 0.217
In 1,4-dioxane, 298.15 K
  solubility (mole fraction): 0.236
In 1,4-dioxane, 303.15 K
  solubility (mole fraction): 0.258
In 1,4-dioxane, 308.15 K
  solubility (mole fraction): 0.285
In 1,4-dioxane, 313.15 K
  solubility (mole fraction): 0.32
In 1,4-dioxane, 318.15 K
  solubility (mole fraction): 0.354
In 1,4-dioxane, 323.15 K
  solubility (mole fraction): 0.394
In 1,4-dioxane, 328.15 K
  solubility (mole fraction): 0.443
In DMAc, 283.15 K
  solubility (mole fraction): 0.339
In DMAc, 288.15 K
  solubility (mole fraction): 0.348
In DMAc, 293.15 K
  solubility (mole fraction): 0.366
In DMAc, 298.15 K
  solubility (mole fraction): 0.384
In DMAc, 303.15 K
  solubility (mole fraction): 0.41
In DMAc, 308.15 K
  solubility (mole fraction): 0.436
In DMAc, 313.15 K
  solubility (mole fraction): 0.466
In DMAc, 318.15 K
  solubility (mole fraction): 0.502
In DMAc, 323.15 K
  solubility (mole fraction): 0.548
In DMAc, 328.15 K
  solubility (mole fraction): 0.587
In DMF, 283.15 K
  solubility (mole fraction): 0.306
In DMF, 288.15 K
  solubility (mole fraction): 0.316
In DMF, 293.15 K
  solubility (mole fraction): 0.33
In DMF, 298.15 K
  solubility (mole fraction): 0.347
In DMF, 303.15 K
  solubility (mole fraction): 0.373
In DMF, 308.15 K
  solubility (mole fraction): 0.396
In DMF, 313.15 K
  solubility (mole fraction): 0.425
In DMF, 318.15 K
  solubility (mole fraction): 0.462
In DMF, 323.15 K
  solubility (mole fraction): 0.502
In DMF, 328.15 K
  solubility (mole fraction): 0.545
In acetonitrile, 283.15 K
  solubility (mole fraction): 0.0208
In acetonitrile, 288.15 K
  solubility (mole fraction): 0.0225
In acetonitrile, 293.15 K
  solubility (mole fraction): 0.0251
In acetonitrile, 298.15 K
  solubility (mole fraction): 0.0283
In acetonitrile, 303.15 K
  solubility (mole fraction): 0.0323
In acetonitrile, 308.15 K
  solubility (mole fraction): 0.0367
In acetonitrile, 313.15 K
  solubility (mole fraction): 0.0419
In acetonitrile, 318.15 K
  solubility (mole fraction): 0.048
In acetonitrile, 323.15 K
  solubility (mole fraction): 0.0574
In acetonitrile, 328.15 K
  solubility (mole fraction): 0.0671
In ethanol, 283.15 K
  solubility (mole fraction): 0.0223
In ethanol, 288.15 K
  solubility (mole fraction): 0.0242
In ethanol, 293.15 K
  solubility (mole fraction): 0.0272
In ethanol, 298.15 K
  solubility (mole fraction): 0.0314
In ethanol, 303.15 K
  solubility (mole fraction): 0.0362
In ethanol, 308.15 K
  solubility (mole fraction): 0.0424
In ethanol, 313.15 K
  solubility (mole fraction): 0.049
In ethanol, 318.15 K
  solubility (mole fraction): 0.057
In ethanol, 323.15 K
  solubility (mole fraction): 0.0677
In ethanol, 328.15 K
  solubility (mole fraction): 0.0803
In ethyl acetate, 283.15 K
  solubility (mole fraction): 0.115
In ethyl acetate, 288.15 K
  solubility (mole fraction): 0.123
In ethyl acetate, 293.15 K
  solubility (mole fraction): 0.134
In ethyl acetate, 298.15 K
  solubility (mole fraction): 0.146
In ethyl acetate, 303.15 K
  solubility (mole fraction): 0.162
In ethyl acetate, 308.15 K
  solubility (mole fraction): 0.177
In ethyl acetate, 313.15 K
  solubility (mole fraction): 0.196
In ethyl acetate, 318.15 K
  solubility (mole fraction): 0.223
In ethyl acetate, 323.15 K
  solubility (mole fraction): 0.254
In ethyl acetate, 328.15 K
  solubility (mole fraction): 0.287
In ethylene glycol, 283.15 K
  solubility (mole fraction): 0.0057
In ethylene glycol, 288.15 K
  solubility (mole fraction): 0.00624
In ethylene glycol, 293.15 K
  solubility (mole fraction): 0.00816
In ethylene glycol, 298.15 K
  solubility (mole fraction): 0.00975
In ethylene glycol, 303.15 K
  solubility (mole fraction): 0.0123
In ethylene glycol, 308.15 K
  solubility (mole fraction): 0.0148
In ethylene glycol, 313.15 K
  solubility (mole fraction): 0.0181
In ethylene glycol, 318.15 K
  solubility (mole fraction): 0.0208
In ethylene glycol, 323.15 K
  solubility (mole fraction): 0.0239
In ethylene glycol, 328.15 K
  solubility (mole fraction): 0.0281
In isobutanol, 283.15 K
  solubility (mole fraction): 0.0136
In isobutanol, 288.15 K
  solubility (mole fraction): 0.015
In isobutanol, 293.15 K
  solubility (mole fraction): 0.0172
In isobutanol, 298.15 K
  solubility (mole fraction): 0.0197
In isobutanol, 303.15 K
  solubility (mole fraction): 0.0227
In isobutanol, 308.15 K
  solubility (mole fraction): 0.0259
In isobutanol, 313.15 K
  solubility (mole fraction): 0.0301
In isobutanol, 318.15 K
  solubility (mole fraction): 0.0357
In isobutanol, 323.15 K
  solubility (mole fraction): 0.0426
In isobutanol, 328.15 K
  solubility (mole fraction): 0.0513
In isopropanol, 283.15 K
  solubility (mole fraction): 0.0189
In isopropanol, 288.15 K
  solubility (mole fraction): 0.0203
In isopropanol, 293.15 K
  solubility (mole fraction): 0.0226
In isopropanol, 298.15 K
  solubility (mole fraction): 0.0261
In isopropanol, 303.15 K
  solubility (mole fraction): 0.0294
In isopropanol, 308.15 K
  solubility (mole fraction): 0.0336
In isopropanol, 313.15 K
  solubility (mole fraction): 0.039
In isopropanol, 318.15 K
  solubility (mole fraction): 0.0447
In isopropanol, 323.15 K
  solubility (mole fraction): 0.0532
In isopropanol, 328.15 K
  solubility (mole fraction): 0.0623
In methanol, 283.15 K
  solubility (mole fraction): 0.0163
In methanol, 288.15 K
  solubility (mole fraction): 0.018
In methanol, 293.15 K
  solubility (mole fraction): 0.02
In methanol, 298.15 K
  solubility (mole fraction): 0.0231
In methanol, 303.15 K
  solubility (mole fraction): 0.026
In methanol, 308.15 K
  solubility (mole fraction): 0.0297
In methanol, 313.15 K
  solubility (mole fraction): 0.0347
In methanol, 318.15 K
  solubility (mole fraction): 0.0405
In methanol, 323.15 K
  solubility (mole fraction): 0.048
In methanol, 328.15 K
  solubility (mole fraction): 0.0565
In n-butanol, 283.15 K
  solubility (mole fraction): 0.0298
In n-butanol, 288.15 K
  solubility (mole fraction): 0.0323
In n-butanol, 293.15 K
  solubility (mole fraction): 0.037
In n-butanol, 298.15 K
  solubility (mole fraction): 0.0425
In n-butanol, 303.15 K
  solubility (mole fraction): 0.0484
In n-butanol, 308.15 K
  solubility (mole fraction): 0.0551
In n-butanol, 313.15 K
  solubility (mole fraction): 0.0632
In n-butanol, 318.15 K
  solubility (mole fraction): 0.0737
In n-butanol, 323.15 K
  solubility (mole fraction): 0.0873
In n-butanol, 328.15 K
  solubility (mole fraction): 0.105
In n-propanol, 283.15 K
  solubility (mole fraction): 0.0257
In n-propanol, 288.15 K
  solubility (mole fraction): 0.0278
In n-propanol, 293.15 K
  solubility (mole fraction): 0.0322
In n-propanol, 298.15 K
  solubility (mole fraction): 0.0369
In n-propanol, 303.15 K
  solubility (mole fraction): 0.0422
In n-propanol, 308.15 K
  solubility (mole fraction): 0.0484
In n-propanol, 313.15 K
  solubility (mole fraction): 0.0562
In n-propanol, 318.15 K
  solubility (mole fraction): 0.066
In n-propanol, 323.15 K
  solubility (mole fraction): 0.0783
In n-propanol, 328.15 K
  solubility (mole fraction): 0.094
In water, 283.15 K
  solubility (mole fraction): 0.00014
In water, 288.15 K
  solubility (mole fraction): 0.000172
In water, 293.15 K
  solubility (mole fraction): 0.000228
In water, 298.15 K
  solubility (mole fraction): 0.000286
In water, 303.15 K
  solubility (mole fraction): 0.000342
In water, 308.15 K
  solubility (mole fraction): 0.000409
In water, 313.15 K
  solubility (mole fraction): 0.000475
In water, 318.15 K
  solubility (mole fraction): 0.000559
In water, 323.15 K
  solubility (mole fraction): 0.000684
In water, 328.15 K
  solubility (mole fraction): 0.000842
